Drawing on PubChem BioAssay (NCI), this text covers TGI for 10 compounds.

Some test systems named below: SW-620 colon; ACHN renal; A498 renal; MDA-MB-231 breast; SF-295 CNS; IGROV1 ovarian; CCRF-CEM leukemia; UACC-257 melanoma; MOLT-4 leukemia; NCI-H522 lung; SR leukemia; OVCAR-8 ovarian; NCI-H226 lung; MDA-N; HL-60(TB) leukemia; HCC-2998 colon.
What all share (assay): NCI anticancer screen, dose series, 48 h

Each structure is given as a SMILES string.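 Each compound was tested at five concentrations against cells in 96-well plates for 48 hours. TGI: concentration producing complete growth inhibition.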

For the compound `CCOC(=O)c1nc2ccc(C(F)(F)F)cc2nc1NCc1ccc(OC)cc1`, the TGI in the test with SW-620 colon, in the test on ACHN renal, in the test on A498 renal, with MDA-MB-231 breast, in the test with SF-295 CNS and in the test with IGROV1 ovarian was over 100 µM each time. Moreover, the TGI with CCRF-CEM leukemia, in the test with UACC-257 melanoma, in the test with MOLT-4 leukemia, in the test with NCI-H522 lung, in the test on SR leukemia and in the test on OVCAR-8 ovarian was over 100 µM throughout. For the same compound, the TGI in the test with NCI-H226 lung and in the test with MDA-N was over 100 µM each time.

`CCOC(=O)c1c[nH]c2c(Sc3ccccc3)nccc2c1=O`: the TGI with SW-620 colon, with ACHN renal, with A498 renal, in the test with MDA-MB-231 breast, in the test with SF-295 CNS and with IGROV1 ovarian was over 100 µM each time. Also, the TGI with CCRF-CEM leukemia was over 100 µM; in the test with HL-60(TB) leukemia it was 83.2 µM; in the test with UACC-257 melanoma, over 100 µM; in the test with MOLT-4 leukemia, over 100 µM; in the test on NCI-H522 lung it was 74 µM; in the test with OVCAR-8 ovarian it was over 100 µM. For the same compound, the TGI in the test on NCI-H226 lung and in the test with MDA-N was over 100 µM in each case.

`S=c1[nH]nc(CNc2ccc(-c3n[nH]c(=S)n3-c3ccc(Cl)cc3)cc2)n1-c1ccc(Cl)cc1`: the TGI in the test with SW-620 colon was over 100 µM; with ACHN renal it was over 100 µM; in the test on A498 renal it was over 100 µM; with HCC-2998 colon it was over 100 µM; in the test on MDA-MB-231 breast, over 100 µM; in the test with SF-295 CNS it was 81.2 µM. Besides, the TGI is 47.1 µM in the test on IGROV1 ovarian; over 100 µM in the test with UACC-257 melanoma; over 100 µM with MOLT-4 leukemia; 48.5 µM in the test on NCI-H522 lung; over 100 µM in the test with NCI-H226 lung; 86.1 µM in the test on MDA-N.

With `O=C1C[C@H](c2ccccc2)O[C@@H](c2ccccc2)C1`, the TGI in the test on SW-620 colon, in the test with HCC-2998 colon, with MDA-MB-231 breast, in the test with SF-295 CNS, in the test on IGROV1 ovarian and in the test with CCRF-CEM leukemia was over 100 µM throughout. Further, the TGI in the test on UACC-257 melanoma, in the test on MOLT-4 leukemia, with OVCAR-8 ovarian, in the test on NCI-H226 lung and in the test on MDA-N was over 100 µM in each case.

As to `COc1ccc(C2N(c3ccc(F)cc3)C(=O)N3C(c4ccc(OC)cc4)N(c4ccc(F)cc4)C(=O)N23)cc1` (stereo not given), the TGI in the test on SW-620 colon, with ACHN renal, in the test on A498 renal, with MDA-MB-231 breast, with SF-295 CNS and in the test with IGROV1 ovarian was over 100 µM throughout. The TGI in the test with CCRF-CEM leukemia, in the test on HL-60(TB) leukemia, in the test with UACC-257 melanoma, in the test with NCI-H522 lung, in the test on SR leukemia and in the test on OVCAR-8 ovarian was over 100 µM in each case. In addition, in the test on MDA-N, the TGI is over 100 µM.

For `COc1ccc(N=NC(=O)NC(Cc2ccccc2)C(=O)O)cc1` (stereo not given), the TGI in the test with SW-620 colon, with ACHN renal, in the test with A498 renal, in the test on HCC-2998 colon, in the test with SF-295 CNS and in the test with IGROV1 ovarian was over 100 µM in each case. The TGI in the test on CCRF-CEM leukemia, in the test with HL-60(TB) leukemia, with UACC-257 melanoma, in the test with MOLT-4 leukemia, in the test with NCI-H522 lung and in the test on SR leukemia was over 100 µM each time. The TGI with OVCAR-8 ovarian, in the test on NCI-H226 lung and in the test on MDA-N was over 100 µM throughout.

Take `CN(C)CCCN1C(=S)N(CCCN(C)C)c2c3ccccc3nc3c([N+](=O)[O-])ccc1c23`: the TGI came out at 17.4 µM in the test on SW-620 colon; 16.1 µM in the test with ACHN renal; 22.9 µM in the test on A498 renal; 14.5 µM in the test with HCC-2998 colon; 24 µM in the test with MDA-MB-231 breast; 23.7 µM in the test with SF-295 CNS. The TGI in the test on IGROV1 ovarian is 16.9 µM; in the test with CCRF-CEM leukemia, over 100 µM; in the test on UACC-257 melanoma, 20.3 µM; in the test with MOLT-4 leukemia, over 100 µM; in the test on NCI-H522 lung it was 10.5 µM; in the test with OVCAR-8 ovarian, 22.5 µM. Moreover, the results for the TGI in the test with NCI-H226 lung and in the test with MDA-N were 24.1 µM and 21.4 µM, respectively.

As for `O=C1/C(=C\Oc2ccc(F)cc2)N2CCC1CC2`, the TGI in the test with ACHN renal, with A498 renal, in the test on MDA-MB-231 breast, in the test on SF-295 CNS, in the test on IGROV1 ovarian and with CCRF-CEM leukemia was over 100 µM each time. The TGI was over 100 µM in the test on HL-60(TB) leukemia; over 100 µM in the test on UACC-257 melanoma; over 100 µM in the test with MOLT-4 leukemia; over 100 µM in the test on NCI-H522 lung; 63.1 µM in the test with SR leukemia; over 100 µM in the test on OVCAR-8 ovarian. Besides, the TGI with NCI-H226 lung and in the test with MDA-N was over 100 µM throughout.

As to `COc1ccc(N=N/C(=N/NC(=O)c2ccc(C)cc2)c2ccc(N(CCC#N)CCC#N)cc2OC)cc1`, the TGI in the test on SW-620 colon, in the test on ACHN renal, with A498 renal, in the test on HCC-2998 colon, in the test with MDA-MB-231 breast and with SF-295 CNS was over 100 µM each time. The TGI in the test with IGROV1 ovarian, in the test with UACC-257 melanoma, in the test on MOLT-4 leukemia, in the test on NCI-H522 lung, in the test with SR leukemia and in the test with OVCAR-8 ovarian was over 100 µM each time. Besides, the TGI with NCI-H226 lung and in the test on MDA-N was over 100 µM each time.

In the case of `O=c1oc2ccccc2nc1/C=C(\O)c1ccc(Cl)cc1`, the TGI in the test on ACHN renal, in the test on A498 renal, in the test with HCC-2998 colon, with MDA-MB-231 breast, with SF-295 CNS and in the test with IGROV1 ovarian was over 100 µM each time. Also, the TGI with CCRF-CEM leukemia, with UACC-257 melanoma, in the test with MOLT-4 leukemia, with NCI-H522 lung, in the test on SR leukemia and in the test with OVCAR-8 ovarian was over 100 µM throughout. Also, the TGI with NCI-H226 lung and in the test with MDA-N was over 100 µM throughout.
